Results from patent US8703195B2, “Method for solubilising, dispersing and stabilising of substances, products manufactured according to the method as well as the use thereof” (Biorem AG, priority 2006, dated 2014).
Where two headings read alike, the source gives them in different places.

What was measured:
[1] = dissolved in water; cited from earlier work
[2] = pH 5; cited from earlier work
[3] = Bioavailability of coenzyme Q10; assay type: in vivo; conditions: oral administration, solubilised with poloxamer and resin or tocopherol by this method
[4] = unformulated active agent, in practice; cited from earlier work
[5] = cited from earlier work

## O=C1O[C@H]([C@@H](O)CO)C(O)=C1O [Vitamin C, ascorbic acid]
[1]
  time until solution in water becomes light yellow: 2 to 3 days

## Abamectin
[2]
  stability against hydrolysis in aqueous solutions: stable

## COC1=C(OC)C(=O)C(C/C=C(\C)CC/C=C(\C)CC/C=C(\C)CC/C=C(\C)CC/C=C(\C)CC/C=C(\C)CC/C=C(\C)CC/C=C(\C)CC/C=C(\C)CCC=C(C)C)=C(C)C1=O [coenzyme Q10]
[3]
  bioavailability: about 85%
[4]
  bioavailability: 10%
[5]
  solubility in water: not water-soluble
